{"source": "patent US20180271470A1", "about": "“METHODS FOR QUANTIFYING PANCREATIC BETA CELL FUNCTION AND MASS PROPERTIES WITH RADIOMANGANESE POSITRON EMISSION TOMOGRAPHY” (Wisconsin Alumni Research Foundation, priority 2017, published 2018)", "key": {"[1]": {"conditions": "[^18F]-FDG study; cited from earlier work"}, "[2]": {"conditions": "mice, other studies; cited from earlier work"}, "[3]": {"assay": "Dynamic PET of ^51Mn^2+ rapid IV bolus under isoflurane", "assay_type": "in vivo, ICR mice", "method": "(§1) All animal studies were conducted under a protocol approved by the University of Wisconsin Institutional Animal Care and Use Committee. Non-fasted healthy ICR mice (Envigo, Indianapolis, Ind.) were divided into two groups. Mice in the first group (n=2) were anaesthetized by isoflurane (4% induction, 1% maintenance), tail-vein catheters were affixed, and mice were placed on the microPET/CT bed in a prone position (Inveon, Siemens Preclinical Solutions, Knoxville, Tenn.). Dynamic PET acquisition was started and ^51Mn^2+ was administered in a rapid bolus (3.3 MBq, 200 μl, 10% 0.01 M NaOAc/90% PBS) through the tail-vein catheter. Sixty minutes of dynamic PET data were acquired following ^51Mn^2+ administration. Due to the impact of volatile anesthetics on voltage-dependent calcium channel (VDCC) activation, the second group (n=3) received an intravenous (I.V.) bolus of ^51Mn^2+ (1.6 MBq, 200 μL, 10% 0.01 M NaOAc/90% PBS) while awake. 60 minutes post-injection mice were anaesthetized by isoflurane and a 10 minute static PET scan acquired. Following imaging, mice were immediately sacrificed by CO2 asphyxiation, and organs were extracted. Ex vivo biodistribution measurements were performed by gamma counting (Wizard 2480, PerkinElmer, Waltham, Mass.).\nDynamic PET data were binned into […] (12×5 s, 6×10 s, 6×30 s, 6×150 s, 6×300 s) and frames were reconstructed using non-scatter-corrected 3D ordered-subset expectation maximization followed by maximum a posteriori reconstruction (OSEM3D/MAP). Static PET data were reconstructed into a single frame by OSEM3D/MAP."}, "[4]": {"assay": "Static PET of ^51Mn^2+ injected in awake mice", "assay_type": "in vivo, ICR mice", "conditions": "I.V. bolus non-anaesthetized, n=3, PET 60 minutes post-injection", "method": "as §1, with “Mass.). […]” for “Mass.).”"}, "[5]": {"assay": "OLINDA dosimetry calculations for Mn-51 and daughter Cr-51", "set-up": "species or system human", "conditions": "OLINDA input", "method": "Due to the rapid blood clearance of Mn^2+, OLINDA (Organ Level INternal Dose Assessment) dosimetry calculations were performed assuming instant compartment localization with organ activity fractions equal to those measured by ex vivo biodistribution herein. Based on the previously measured lengthy organ residence times of Mn^2+, it was also assumed that the effective organ clearance half-life (Ter) was equal to the radioactive half-life of Mn-51 (t1/2: 45.6 min). It was also assumed that Mn-51 injections were 100% radionuclidically pure. In regards to the daughter isotope, Cr-51 (t1/2: 27.7 d), it was assumed that the activity remained in same organ compartments as the parent Mn-51 biodistribution without biological clearance. Standard radiation weighting factors were used (γ=1, β=1). Based on these assumptions, effective dose (ED) and effective dose equivalent (EDE) (units of mSv/MBq) were calculated for a standard adult male and female."}, "[6]": {"assay": "Ex vivo ^51Mn biodistribution by gamma counting", "assay_type": "in vivo, ICR mice", "conditions": "awake I.V. bolus, gamma counting after 1 h PET", "method": "as §1"}}}
{"compound": "OC[C@H]1OC(O)[C@H]([18F])[C@@H](O)[C@@H]1O", "note": "(some centres unmarked) [[^18F]-FDG]", "values": [{"measurement": "average dose for a study", "setting": "[1]", "value": 14.1, "unit": "mSv"}]}
{"compound": "[63Zn+2]", "note": "[^63Zn^2+]", "values": [{"measurement": "pancreatic uptake", "setting": "[2]", "value": "significant"}]}
{"compound": "^51MnCl2 [Mn-51]", "values": [{"measurement": "kidney uptake, anaesthetized dynamic PET subjects", "setting": "[3]; I.V. bolus under isoflurane, n=2", "value": "13.7±2.6", "unit": "SUV"}, {"measurement": "duration of initial distribution", "setting": "[3]; rapid IV bolus, dynamic PET", "value": "< 1", "unit": "min"}, {"measurement": "heart blood-pool clearance half-life", "setting": "[3]; rapid IV bolus, heart TAC 0.375 to 3.25 minutes post-injection", "value": "7.7 ± 0.7", "unit": "s"}, {"measurement": "kidney uptake, static PET subjects", "setting": "[4]", "value": "7.7±1.1", "unit": "SUV"}, {"measurement": "Number of disintigrations, Total Body", "setting": "[5]; Total Body", "value": "8.70E−01", "unit": "MBq-h/MBq"}, {"measurement": "Number of disintigrations, Adrenals", "setting": "[5]; source organ Adrenals", "value": "0.00E+00", "unit": "MBq-h/MBq"}, {"measurement": "Number of disintigrations, Brain", "setting": "[5]; source organ Brain", "value": "4.43E−03", "unit": "MBq-h/MBq"}, {"measurement": "Number of disintigrations, Breasts", "setting": "[5]; source organ Breasts", "value": "0.00E+00", "unit": "MBq-h/MBq"}, {"measurement": "Number of disintigrations, Cortical Bone", "setting": "[5]; source organ Cortical Bone", "value": "8.40E−04", "unit": "MBq-h/MBq"}, {"measurement": "Number of disintigrations, Gallbladder Contents", "setting": "[5]; source organ Gallbladder Contents", "value": "0.00E+00", "unit": "MBq-h/MBq"}, {"measurement": "Number of disintigrations, Heart Contents", "setting": "[5]; source organ Heart Contents", "value": "0.00E+00", "unit": "MBq-h/MBq"}, {"measurement": "Number of disintigrations, Heart Wall", "setting": "[5]; source organ Heart Wall", "value": "2.37E−02", "unit": "MBq-h/MBq"}, {"measurement": "Number of disintigrations, Kidneys", "setting": "[5]; source organ Kidneys", "value": "6.91E−02", "unit": "MBq-h/MBq"}, {"measurement": "Number of disintigrations, LLI", "setting": "[5]; source organ LLI", "value": "0.00E+00", "unit": "MBq-h/MBq"}, {"measurement": "Number of disintigrations, Liver", "setting": "[5]; source organ Liver", "value": "6.30E−02", "unit": "MBq-h/MBq"}, {"measurement": "Number of disintigrations, Lungs", "setting": "[5]; source organ Lungs", "value": "1.68E−02", "unit": "MBq-h/MBq"}, {"measurement": "Number of disintigrations, Muscle", "setting": "[5]; source organ Muscle", "value": "2.18E−03", "unit": "MBq-h/MBq"}, {"measurement": "Number of disintigrations, Ovaries", "setting": "[5]; source organ Ovaries", "value": "0.00E+00", "unit": "MBq-h/MBq"}, {"measurement": "Number of disintigrations, Pancreas", "setting": "[5]; source organ Pancreas", "value": "4.11E−02", "unit": "MBq-h/MBq"}, {"measurement": "Number of disintigrations, Red Marrow", "setting": "[5]; source organ Red Marrow", "value": "0.00E+00", "unit": "MBq-h/MBq"}, {"measurement": "Number of disintigrations, Small Intestine", "setting": "[5]; source organ Small Intestine", "value": "0.00E+00", "unit": "MBq-h/MBq"}, {"measurement": "Number of disintigrations, Spleen", "setting": "[5]; source organ Spleen", "value": "9.16E−03", "unit": "MBq-h/MBq"}, {"measurement": "Number of disintigrations, Stomach", "setting": "[5]; source organ Stomach", "value": "0.00E+00", "unit": "MBq-h/MBq"}, {"measurement": "Number of disintigrations, Testes", "setting": "[5]; source organ Testes", "value": "0.00E+00", "unit": "MBq-h/MBq"}, {"measurement": "Number of disintigrations, Thymus", "setting": "[5]; source organ Thymus", "value": "0.00E+00", "unit": "MBq-h/MBq"}, {"measurement": "Number of disintigrations, Thyroid", "setting": "[5]; source organ Thyroid", "value": "0.00E+00", "unit": "MBq-h/MBq"}, {"measurement": "Number of disintigrations, Trabecular Bone", "setting": "[5]; source organ Trabecular Bone", "value": "0.00E+00", "unit": "MBq-h/MBq"}, {"measurement": "Number of disintigrations, ULI", "setting": "[5]; source organ ULI", "value": "6.42E−03", "unit": "MBq-h/MBq"}, {"measurement": "Number of disintigrations, Urinary Bladder Contents", "setting": "[5]; source organ Urinary Bladder Contents", "value": "0.00E+00", "unit": "MBq-h/MBq"}, {"measurement": "Number of disintigrations, Uterus/Uterine Wall", "setting": "[5]; source organ Uterus/Uterine Wall", "value": "0.00E+00", "unit": "MBq-h/MBq"}, {"measurement": "Mn-51 uptake in heart, ex vivo biodistribution", "setting": "[6]", "value": "5.6±1.8", "unit": "SUV"}, {"measurement": "Mn-51 uptake in kidneys, ex vivo biodistribution", "setting": "[6]", "value": "9.2±0.7", "unit": "SUV"}, {"measurement": "Mn-51 uptake in pancreas, ex vivo biodistribution", "setting": "[6]", "value": "7.0±1.3", "unit": "SUV"}]}
